According to patent US6992105B2, “Dipeptide derivatives” (Novartis AG, priority 2001, dated 2006):

Legend:
[1] = system: angiotensin I induced pressor response (ACE); test: inhibition of the angiotensin I induced pressor response in normotensive rats; format: in vivo, rat; details: 11.8 mg/kg p.o., conscious normotensive rats
Description: The in vivo test for i.v. administered compounds is performed with male, normotensive rats, which are conscious. A femoral artery and femoral vein are cannulated respectively for direct blood pressure measurement on i.v. administration of angiotensin I and i.v. or p.o. administration of a compound of this invention. After the basal blood pressure is stabilized, pressor responses to 3 or 4 challenges of 300 ng/kg angiotensin I i.v., at 15-minute intervals, are obtained. Such pressure responses are usually again obtained at 15, 30, 60 and 90 minutes, and then every hour up to 6 hours after i.v. or p.o. administration of the compound to be tested, and compared with the initial responses. Any observed decrease of said pressor response is an indication of ACE inhibition.

[2] = system: plasma ANF concentration (NEP inhibition); test: effect on rat plasma ANF concentration; format: in vivo; details: 11.8 mg/kg p.o., rats infused with ANF 450 ng/kg/min i.v.
Description: The effect of the compounds of the invention on rat plasma ANF concentration can be determined as follows:
Male Sprague-Dawley rats (275–390 g) are anesthetized with ketamine (150 mg/kg)/acepromazine (10%) and instrumented with catheters in the femoral artery and vein to obtain blood samples and infuse ANF, respectively. The rats are tethered with a swivel system and are allowed to recover for 24 hours before being studied in the conscious, unrestrained state.
In the assay, plasma ANF levels are determined in the presence and absence of NEP inhibition. On the day of study, all rats are infused continuously with ANF at 450 ng/kg/min. i.v. for the entire 5 hours of the experiment. Sixty minutes after beginning the infusion, blood samples for baseline ANF measurements are obtained (time 0) and the rats are then randomly divided into groups treated with the test compound or vehicle. Additional blood samples are taken 30, 60, 120, 180 and 240 minutes after administration of the test compound.
Plasma ANF concentrations are determined by a specific radioimmunoassay. […] The supernatant is decanted and the pellets counted in a gamma counter. […] Plasma ANF levels are expressed as a percent of those measured in vehicle-treated animals which received ANF alone (450 ng/kg/min. i.v.)

[3] = system: spontaneously hypertensive rat (SHR); test: anti-hypertensive activity in the spontaneously hypertensive rat (SHR); format: in vivo; details: conscious SHR, once daily administration of 11.8 mg/kg p.o.
Excerpt: The anti-hypertensive activity can be determined, e.g., in the spontaneously hypertensive rat (SHR) and the DOCA-salt hypertensive rat, e.g., according to Bazil et al., J. Cardiovasc. Pharmacol., Vol. 22, pp. 897–905 (1993) and Trapani et al., J. Cardiovasc. Pharmacol., Vol. 14, pp. 419–424 (1989), respectively.

CCOC(=O)[C@H](COCc1ccccc1)NC(=O)C(C)(C)NC(=O)[C@@H](SC(C)=O)C(C)C [Example 1(a), N-[2-[(S)-2-Acetylthio-3-methylbutanoylamino]-2-methylpropionyl]-O-benzyl-L-serine ethyl ester]
duration of inhibition of the angiotensin I induced pressor response [1]: 6 h
increase of plasma ANF levels [2]: about 70%
effect on mean arterial pressure [3]: reduces mean arterial pressure
